A short description of data set [1]: xn = mol fraction of the nth substance listed. The following applies: 298.15 K, Pendant drop shape.
For data set [2] the following is noted: 298.15 K; for mass density: 101.33 kPa, Vibrating tube method; for surface tension liquid-gas: Pendant drop shape.

Numbers after ± are expanded uncertainties.

In the case of `Cc1ccc(C)cc1` [1,4-dimethylbenzene] + CC(C)O, the surface tension liquid-gas in data set [1] (x2 = 0) was 27.89 ± 0.38 mN/m; in data set [1] (x2 = 0.1029), 26.82 ± 0.37 mN/m; in data set [1] (x2 = 0.2014), 26.03 ± 0.36 mN/m; in data set [1] (x2 = 0.2993) it was 25.32 ± 0.35 mN/m; in data set [1] (x2 = 0.403), 24.63 ± 0.35 mN/m; in data set [1] (x2 = 0.4979), 24.06 ± 0.34 mN/m. Further, the surface tension liquid-gas in data set [1] (x2 = 0.5985) is reported as 23.45 ± 0.33 mN/m; in data set [1] (x2 = 0.6991), 22.86 ± 0.33 mN/m; in data set [1] (x2 = 0.7982), 22.22 ± 0.32 mN/m; in data set [1] (x2 = 0.9047), 21.52 ± 0.32 mN/m.
In the case of `Cc1cccc(C)c1` [1,3-dimethylbenzene], in data set [2] (Liquid), the mass density was 859.79 ± 0.16 kg/m3 and the surface tension liquid-gas amounted to 28.36 ± 0.39 mN/m.
As for `Cc1ccccc1C` [1,2-dimethylbenzene], in data set [2] (Liquid), the mass density came out at 875.92 ± 0.11 kg/m3 and the surface tension liquid-gas is given as 29.6 ± 0.4 mN/m.
Consider `CC(C)(C)O` [2-methylpropan-2-ol], for which the mass density in data set [2] (Liquid) was found to be 780.27 ± 0.16 kg/m3. The surface tension liquid-gas in data set [2] (Metastable liquid) was 19.97 ± 0.3 mN/m.
For `CC(C)(C)O` [2-methylpropan-2-ol] + Cc1ccc(C)cc1, in data set [1] (x1 = 1), the surface tension liquid-gas was 19.97 ± 0.3 mN/m.
On the same count and under the same terms, under `CC(C)(C)O` [2-methylpropan-2-ol] + Cc1cccc(C)c1 stands 19.97 ± 0.3 mN/m.
The same measure, in the same setting: under `CC(C)O` [propan-2-ol] + Cc1ccccc1C stands 20.93 ± 0.31 mN/m.
With `CC(C)O` [propan-2-ol], in data set [2] (Liquid), the mass density is on record as 780.85 ± 0.16 kg/m3 and the surface tension liquid-gas is on record as 20.93 ± 0.31 mN/m.
For the compound `Cc1ccc(C)cc1` [1,4-dimethylbenzene] + CC(C)(C)O, the surface tension liquid-gas in data set [1] (x2 = 0) stood at 27.89 ± 0.38 mN/m; in data set [1] (x2 = 0.1004) it was 26.69 ± 0.37 mN/m; in data set [1] (x2 = 0.2113), 25.63 ± 0.36 mN/m; in data set [1] (x2 = 0.3049), 24.73 ± 0.35 mN/m; in data set [1] (x2 = 0.4065), 23.9 ± 0.34 mN/m; in data set [1] (x2 = 0.498), 23.25 ± 0.33 mN/m. Further, the surface tension liquid-gas in data set [1] (x2 = 0.6012) is 22.5 ± 0.33 mN/m; in data set [1] (x2 = 0.698), 21.82 ± 0.32 mN/m; in data set [1] (x2 = 0.8007) it was 21.15 ± 0.31 mN/m; in data set [1] (x2 = 0.9002), 20.58 ± 0.31 mN/m.
In the case of `CC(C)O` [propan-2-ol] + Cc1ccc(C)cc1, the surface tension liquid-gas in data set [1] (x1 = 1) was 20.93 ± 0.31 mN/m.
For `Cc1cccc(C)c1` [1,3-dimethylbenzene] + CC(C)O, the surface tension liquid-gas in data set [1] (x2 = 0) stood at 28.36 ± 0.39 mN/m; in data set [1] (x2 = 0.1019), 27.15 ± 0.38 mN/m; in data set [1] (x2 = 0.1933), 26.23 ± 0.37 mN/m; in data set [1] (x2 = 0.2999), 25.4 ± 0.36 mN/m; in data set [1] (x2 = 0.4024), 24.76 ± 0.35 mN/m; in data set [1] (x2 = 0.4983), 24.18 ± 0.34 mN/m. The surface tension liquid-gas in data set [1] (x2 = 0.5957) was 23.56 ± 0.34 mN/m; in data set [1] (x2 = 0.7013) it was 22.87 ± 0.33 mN/m; in data set [1] (x2 = 0.7952), 22.26 ± 0.32 mN/m; in data set [1] (x2 = 0.8987), 21.58 ± 0.32 mN/m.
As to `Cc1ccc(C)cc1` [1,4-dimethylbenzene], in data set [2] (Liquid), the mass density came out at 856.85 ± 0.12 kg/m3 and the surface tension liquid-gas turned out to be 27.89 ± 0.38 mN/m.
As for `CC(C)(C)O` [2-methylpropan-2-ol] + Cc1ccccc1C, in data set [1] (x1 = 1), the surface tension liquid-gas is 19.97 ± 0.3 mN/m.
Take `CC(C)O` [propan-2-ol] + Cc1cccc(C)c1: in data set [1] (x1 = 1), the surface tension liquid-gas is 20.93 ± 0.31 mN/m.
Take `Cc1cccc(C)c1` [1,3-dimethylbenzene] + CC(C)(C)O: the surface tension liquid-gas was found to be 28.36 ± 0.39 mN/m in data set [1] (x2 = 0); 26.83 ± 0.37 mN/m in data set [1] (x2 = 0.1028); 25.76 ± 0.36 mN/m in data set [1] (x2 = 0.201); 24.84 ± 0.35 mN/m in data set [1] (x2 = 0.3006); 23.98 ± 0.34 mN/m in data set [1] (x2 = 0.4009); 23.21 ± 0.33 mN/m in data set [1] (x2 = 0.4999). Further, the surface tension liquid-gas in data set [1] (x2 = 0.5994) stood at 22.52 ± 0.33 mN/m; in data set [1] (x2 = 0.6984), 21.84 ± 0.32 mN/m; in data set [1] (x2 = 0.7981), 21.22 ± 0.31 mN/m; in data set [1] (x2 = 0.895), 20.64 ± 0.31 mN/m.
Regarding `Cc1ccccc1C` [1,2-dimethylbenzene] + CC(C)(C)O, the surface tension liquid-gas in data set [1] (x2 = 0) turned out to be 29.6 ± 0.4 mN/m; in data set [1] (x2 = 0.1083), 27.8 ± 0.38 mN/m; in data set [1] (x2 = 0.1992), 26.43 ± 0.36 mN/m; in data set [1] (x2 = 0.3042), 25.27 ± 0.35 mN/m; in data set [1] (x2 = 0.402), 24.32 ± 0.34 mN/m; in data set [1] (x2 = 0.5007), 23.6 ± 0.34 mN/m. The surface tension liquid-gas was found to be 22.82 ± 0.33 mN/m in data set [1] (x2 = 0.5988), 22.05 ± 0.32 mN/m in data set [1] (x2 = 0.6992), 21.38 ± 0.31 mN/m in data set [1] (x2 = 0.8) and 20.71 ± 0.31 mN/m in data set [1] (x2 = 0.8991).
With `Cc1ccccc1C` [1,2-dimethylbenzene] + CC(C)O, the surface tension liquid-gas turned out to be 29.6 ± 0.4 mN/m in data set [1] (x2 = 0); 28.21 ± 0.38 mN/m in data set [1] (x2 = 0.0992); 27.11 ± 0.37 mN/m in data set [1] (x2 = 0.1988); 26.07 ± 0.36 mN/m in data set [1] (x2 = 0.3024); 25.3 ± 0.35 mN/m in data set [1] (x2 = 0.4004); 24.54 ± 0.35 mN/m in data set [1] (x2 = 0.4979). Also, the surface tension liquid-gas in data set [1] (x2 = 0.5971) turned out to be 23.98 ± 0.34 mN/m; in data set [1] (x2 = 0.6988) it was 23.15 ± 0.33 mN/m; in data set [1] (x2 = 0.8), 22.4 ± 0.32 mN/m; in data set [1] (x2 = 0.8896), 21.72 ± 0.32 mN/m.

The surface tension liquid-gas is the force per length acting along the surface. The mass density is mass per unit of volume.

For the origin of these results see the NIST ThermoML archive (doi:10.1021/je0256028).
